Data published in patent US20250136595A1, “ACYLATED HETEROCYCLIC QUINAZOLINE DERIVATIVES AS INHIBITORS OF ERBB2” (Enliven Inc., priority 2022, published 2025).

Tests used:
[1] = target: T1, phosphorylated EGFR (pEGFR) (Homo sapiens, UniProt P00533); test: Detection of phosphorylated EGFR (pEGFR) in EGF-stimulated A431 cells (AlphaLISA); format: cell-based; settings: A431 cells (10% FBS), 4 hours incubation, EGF 30 ng/mL for 10 minutes
T1 construct: performed to measure phosphorylated EGFR levels using A431 cells; endogenous in cells; host or cells: A431
T1 sequence (P00533 25-1210): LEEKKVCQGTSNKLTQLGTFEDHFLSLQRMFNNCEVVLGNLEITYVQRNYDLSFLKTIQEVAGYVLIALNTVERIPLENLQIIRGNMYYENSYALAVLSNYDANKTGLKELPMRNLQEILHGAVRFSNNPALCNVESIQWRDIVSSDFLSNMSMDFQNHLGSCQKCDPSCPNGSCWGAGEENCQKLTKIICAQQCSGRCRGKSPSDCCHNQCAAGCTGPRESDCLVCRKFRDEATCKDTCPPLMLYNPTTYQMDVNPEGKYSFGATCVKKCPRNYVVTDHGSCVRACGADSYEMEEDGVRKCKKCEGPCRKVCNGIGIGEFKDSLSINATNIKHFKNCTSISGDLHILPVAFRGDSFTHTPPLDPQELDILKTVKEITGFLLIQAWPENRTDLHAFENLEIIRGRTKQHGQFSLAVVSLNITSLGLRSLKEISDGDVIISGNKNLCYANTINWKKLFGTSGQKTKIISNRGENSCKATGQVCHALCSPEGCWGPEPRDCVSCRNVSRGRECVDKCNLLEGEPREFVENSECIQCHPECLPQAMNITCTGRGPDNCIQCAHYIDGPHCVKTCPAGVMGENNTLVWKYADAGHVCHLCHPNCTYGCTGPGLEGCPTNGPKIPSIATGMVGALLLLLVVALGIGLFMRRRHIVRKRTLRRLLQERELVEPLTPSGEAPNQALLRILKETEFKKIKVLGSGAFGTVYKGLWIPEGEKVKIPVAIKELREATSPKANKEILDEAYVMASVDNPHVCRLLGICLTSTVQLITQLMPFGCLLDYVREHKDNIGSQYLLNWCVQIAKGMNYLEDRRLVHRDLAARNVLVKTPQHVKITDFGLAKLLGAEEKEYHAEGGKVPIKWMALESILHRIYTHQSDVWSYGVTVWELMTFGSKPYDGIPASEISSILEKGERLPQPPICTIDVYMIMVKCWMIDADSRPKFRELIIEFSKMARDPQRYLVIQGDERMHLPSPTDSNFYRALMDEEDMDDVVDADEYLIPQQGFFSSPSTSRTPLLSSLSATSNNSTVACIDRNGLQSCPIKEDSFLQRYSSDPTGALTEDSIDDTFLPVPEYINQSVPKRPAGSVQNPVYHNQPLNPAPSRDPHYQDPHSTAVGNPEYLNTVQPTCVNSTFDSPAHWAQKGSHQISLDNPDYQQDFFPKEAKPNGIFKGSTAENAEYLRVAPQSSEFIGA
Procedure: Enzyme-linked immunosorbent assays (ELISA) were performed to measure phosphorylated EGFR levels using A431 cells (10% FBS). A431 (1.0*10^4 cells/40 μl/well) cells were seeded in 384 well. Compounds were dissolved in DMSO, serially diluted in DMSO and then were added, mixed, and incubated for 4 hours at 37° C., 5% CO2. Following the 4-hours incubation, cells were stimulated for 10 minutes with EGF (Invitrogen, cat #PHG0311) at a final concentration of 30 ng/mL in the incubator. The media was aspirated and cells were lysed in 10 μL lysis buffer with protease and phosphatase inhibitors (PerkinElmer, cat #ALSU-PEGFR-A50K). The plates were placed on a shaker for 5 minutes and then incubated for 30 min at 4° C. for complete lysis. The lysate was transferred to an Optiplate (Perkin Elmer, cat #6007290).
Acceptor mix (PerkinElmer, cat #ALSU-PEGFR-A50K) was prepared just before use and 5 μL was dispensed to all the wells, followed by a 1.5-2 h incubation at room temperature in dark. The donor mix (PerkinElmer, cat #ALSU-PEGFR-A50K) was prepared under low light conditions prior to use and 5 μl of donor mix was added to all the wells under subdued lighting or green filters. The plates were placed on a shaker for 5 min, sealed, and incubated overnight at room temperature in dark. Plates were read on the Envision (PerkinElmer) using standard AlphaLISA settings.
The percentage of inhibition on EGFR phosphorylation was calculated following equation: % Inhibition=100×(LumHC−LumSample)/(LumHC−LumLC). The low and high controls (LC/HC) are generated from lysate from wells with cells treated with DMSO or […] Staurosporine (BioAustralis, cat #BIA-S1086), […]. IC50 values were calculated by fitting the Curve using XLfit (v5.3.1.3), equation 201: Y=Bottom+ (Top−Bottom)/(1+10^((LogIC50−X)*HillSlope)).

Ba/F3 ERBB2 YVMA = Ba/F3 ERBB2 YVMA (Homo sapiens, UniProt P04626, DUP772-775, cells depend on it); test: Cell viability assay (CellTiter Glo) in Ba/F3 cells engineered to express ERBB2 YVMA; format: cell-based, mouse; settings: Ba/F3 cells expressing human ERBB2 YVMA mutant, 72 hours, % viability, read-out: Ba/F3 ERBB2 YVMA IC50
Chain of Ba/F3 ERBB2 YVMA (P04626 with tags, fused parts or gaps DUP772-775): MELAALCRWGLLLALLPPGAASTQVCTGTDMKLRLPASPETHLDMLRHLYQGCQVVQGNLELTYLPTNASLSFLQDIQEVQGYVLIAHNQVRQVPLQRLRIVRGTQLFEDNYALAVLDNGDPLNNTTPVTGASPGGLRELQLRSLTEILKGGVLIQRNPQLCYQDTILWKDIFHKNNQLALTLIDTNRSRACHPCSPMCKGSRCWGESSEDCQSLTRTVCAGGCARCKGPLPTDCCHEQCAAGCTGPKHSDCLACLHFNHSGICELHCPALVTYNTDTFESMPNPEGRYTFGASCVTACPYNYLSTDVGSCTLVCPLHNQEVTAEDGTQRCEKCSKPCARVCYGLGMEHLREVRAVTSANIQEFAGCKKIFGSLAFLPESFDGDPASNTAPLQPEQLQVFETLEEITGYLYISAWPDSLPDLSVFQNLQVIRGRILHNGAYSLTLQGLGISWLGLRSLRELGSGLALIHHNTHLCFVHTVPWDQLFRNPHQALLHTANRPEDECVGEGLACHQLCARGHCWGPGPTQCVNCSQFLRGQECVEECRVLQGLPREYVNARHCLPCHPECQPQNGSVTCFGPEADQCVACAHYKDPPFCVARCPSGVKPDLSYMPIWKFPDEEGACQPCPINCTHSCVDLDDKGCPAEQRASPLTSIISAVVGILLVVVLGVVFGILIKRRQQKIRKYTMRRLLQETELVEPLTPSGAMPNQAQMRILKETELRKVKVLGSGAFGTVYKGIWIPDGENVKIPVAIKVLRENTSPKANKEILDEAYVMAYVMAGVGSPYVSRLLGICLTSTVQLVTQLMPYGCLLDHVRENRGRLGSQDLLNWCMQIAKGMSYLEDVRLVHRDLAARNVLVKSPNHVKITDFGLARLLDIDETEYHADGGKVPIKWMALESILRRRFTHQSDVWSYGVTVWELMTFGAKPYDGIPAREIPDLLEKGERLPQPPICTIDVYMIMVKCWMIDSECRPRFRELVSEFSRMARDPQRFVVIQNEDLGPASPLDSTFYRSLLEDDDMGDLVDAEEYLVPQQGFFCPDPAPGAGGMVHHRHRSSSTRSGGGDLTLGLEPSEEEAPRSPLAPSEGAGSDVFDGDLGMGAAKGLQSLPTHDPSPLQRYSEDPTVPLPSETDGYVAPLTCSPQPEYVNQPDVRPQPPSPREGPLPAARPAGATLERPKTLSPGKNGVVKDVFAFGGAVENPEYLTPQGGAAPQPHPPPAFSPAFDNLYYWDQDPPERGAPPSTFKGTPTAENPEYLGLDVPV
Procedure: Cells were treated with compounds, and cell viability was measured as a metric of kinase inhibition.
The Ba/F3 cell line is IL-3-dependent mouse cell line derived from the C3H mouse strain. Ba/F3 cell lines were engineered to express human ERBB2 or EGFR kinases, rendering the cells IL-3 independent. The lines were generated via retroviral transduction utilizing a Moloney murine leukemia virus (MMLV) promoter, and constructs are stably integrated into the cell genome. The sequences of the ERBB2 and EGFR genes used were NCBI Reference Sequences NM_004448.3 and NM_005228.3, respectively.
Similarly, Ba/F3 cell lines engineered to express EGFR, ERBB2, or ERBB2 mutants were grown, harvested, counted and seeded at 3000 cells per well in 96-well plates for the data sets shown in Tables B3-B4. A subset of wells contained media only (low control, “LC”).
Table B1 provides the growth media and number of cells seeded per well for the each cell line.
Compounds were dissolved in DMSO and serially diluted. Serially-diluted compound or a DMSO only control (high control, “HC”) was added to the plated cells in each well. […] The final proportion of DMSO never exceeded 0.1%.
Plates were placed in a 37° C., 5% CO2 incubator for 72 hours. Plates were then removed from the incubator and equilibrated for 15 minutes at room temperature. 40 μl of CellTiter Glo reagent (Promega) was added to measure the relative level of metabolically active cells by quantifying intracellular ATP concentrations. Plates were incubated for 30 minutes at room temperature, and luminescence was measured. Percent viability was normalized to a vehicle control only using the following formula: % viability=100×(Lumsample−LumLC)/(LumHC−LumLC). Graphical curves were fitted using a nonlinear regression model with a sigmoidal dose response.

[2] = target: T2, phosphorylated ERBB2 (pERBB2) (Homo sapiens, UniProt P04626); test: Detection of phosphorylated ERBB2 (pERBB2) by ELISA in BT-474 cells; format: cell-based; settings: four hour incubation with compound
T2 construct: endogenous in cells; host or cells: BT-474
T2 sequence (P04626 23-1255): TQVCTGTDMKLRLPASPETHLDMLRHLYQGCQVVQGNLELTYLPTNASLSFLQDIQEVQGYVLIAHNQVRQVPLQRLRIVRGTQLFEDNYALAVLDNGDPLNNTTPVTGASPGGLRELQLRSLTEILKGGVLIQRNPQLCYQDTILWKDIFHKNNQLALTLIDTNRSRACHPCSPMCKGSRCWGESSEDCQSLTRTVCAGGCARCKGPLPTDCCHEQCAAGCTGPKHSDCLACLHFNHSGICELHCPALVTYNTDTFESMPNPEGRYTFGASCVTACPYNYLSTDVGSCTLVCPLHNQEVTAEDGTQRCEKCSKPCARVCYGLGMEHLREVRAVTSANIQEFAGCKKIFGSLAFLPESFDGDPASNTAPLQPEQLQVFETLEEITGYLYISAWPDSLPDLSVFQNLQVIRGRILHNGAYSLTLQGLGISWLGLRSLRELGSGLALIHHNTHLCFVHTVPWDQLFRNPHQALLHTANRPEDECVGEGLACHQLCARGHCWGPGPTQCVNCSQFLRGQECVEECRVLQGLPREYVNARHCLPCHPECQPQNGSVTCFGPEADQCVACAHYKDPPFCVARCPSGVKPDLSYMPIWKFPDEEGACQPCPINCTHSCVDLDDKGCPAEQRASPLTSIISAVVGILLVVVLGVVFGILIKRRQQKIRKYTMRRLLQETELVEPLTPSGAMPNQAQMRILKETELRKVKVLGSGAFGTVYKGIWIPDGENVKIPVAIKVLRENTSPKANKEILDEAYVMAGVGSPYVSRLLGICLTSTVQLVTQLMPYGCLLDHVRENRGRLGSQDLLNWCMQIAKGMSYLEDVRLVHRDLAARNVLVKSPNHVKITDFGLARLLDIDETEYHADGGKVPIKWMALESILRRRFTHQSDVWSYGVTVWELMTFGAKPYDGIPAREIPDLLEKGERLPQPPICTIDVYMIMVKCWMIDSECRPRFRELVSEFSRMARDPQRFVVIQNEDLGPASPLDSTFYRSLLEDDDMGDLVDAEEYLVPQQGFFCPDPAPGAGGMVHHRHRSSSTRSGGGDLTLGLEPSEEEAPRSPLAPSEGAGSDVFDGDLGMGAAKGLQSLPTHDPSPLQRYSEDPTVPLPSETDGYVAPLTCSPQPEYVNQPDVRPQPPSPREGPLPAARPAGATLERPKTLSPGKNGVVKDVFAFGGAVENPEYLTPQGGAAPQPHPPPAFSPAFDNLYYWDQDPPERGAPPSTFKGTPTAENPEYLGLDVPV
Procedure: BT-474 cells were seeded into a 96-well at 2.0*10^4 cells/100 μl/well. Compounds were dissolved and serially diluted in DMSO. The compounds were then were added, mixed, and incubated for four hours at 37° C., 5% CO2. Compounds were added using four-fold dilutions at final concentrations ranging from 10 μM to 0.01 nM. Following the four hour incubation with compounds, cell lysates were prepared. Plates were centrifuged for 5 min at 3000 RPM, and supernatant was removed from each well. Cells were washed 3 times by resuspension in 150 μl PBS, followed by centrifugation and removal of the supernatant, as above. […] Cells were incubated with lysis buffer for 1 hour at 4° C., and then stored at -80° C. Enzyme-linked immunosorbent assays (ELISA) were performed to measure phosphorylated ERBB2 levels. […] The next day, plates were washed with PBS+0.05% Tween20 (PBST). 150 μl of 5% BSA blocking solution was added for 1 hour at room temperature, with shaking. Plates were washed with PBST. Cell lysates were thawed and 100 μl of lysate was added to the ELISA plate. The plates were incubated for 2 hours at room temperature, with shaking. […] Plates were incubated for 1 hour at room temperature, with shaking. Plates were then washed with PBST, and 100 μl TMB substrate solution (R&D Systems, cat #DY999) was added. Plate were incubated in the dark for 20 minutes at room temperature. 50 μl of Stop solution (R&D Systems, cat #DY994) (50 μl) was added to each well and mixed. Optical density at 450 nm was read on an EnSpire plate reader (Perkin Elmer). The remaining kinase activity by calculated using the following formula: % Relative activity=100×([…]). The low and high control values (“LC” and “HC”) were generated from lysate from wells without cells or with cells treated with 0.1% DMSO, respectively.

Structure (SMILES) | IC50 [1] [nM] | IC50 [2] [nM] | GI50 (Ba/F3 ERBB2 YVMA) [nM]
CC#CC(=O)N1CC2CC(C1)N2c1ccc2ncnc(Nc3ccc(Oc4ccn5ncnc5c4)c(C)c3)c2n1 [Compound 28, 1-(6-{4-[(3-methyl-4-{[1,2,4]triazolo[1,5-a]pyridin-7-yloxy}phenyl)amino]pyrido[3,2-d]pyrimidin-6-yl}-3,6-diazabicyclo[3.1.1]heptan-3-yl)but-2-yn-1-one] | > 10000 | 444 | 228
CC#CC(=O)N1CC2CC1CN2c1ccc2ncnc(Nc3ccc(Oc4ccn5ncnc5c4)c(C)c3)c2n1 (stereo not drawn) [Compound 30, 1-(5-(4-((4-([1,2,4]triazolo[1,5-a]pyridin-7-yloxy)-3-methylphenyl)amino)pyrido[3,2-d]pyrimidin-6-yl)-2,5-diazabicyclo[2.2.1]heptan-2-yl)but-2-yn-1-one] | 2430 | 61.4 | 21.2
CC#CC(=O)N1CCN(c2ccc3ncnc(Nc4ccc(Oc5ccc6c(c5)ncn6C)c(C)c4)c3n2)CC1 [Compound 31, 1-{4-[4-({3-methyl-4-[(1-methyl-1,3-benzodiazol-5-yl)oxy]phenyl}amino)pyrido[3,2-d]pyrimidin-6-yl]piperazin-1-yl}but-2-yn-1-one] | 7640 | 29 | 6.56
CC#CC(=O)N1CCN(c2ccc3ncnc(Nc4ccc(O[C@@H]5CCCOC5)c(C)c4)c3n2)CC1 [Compound 32, 1-{4-[4-({3-methyl-4-[(3R)-oxan-3-yloxy]phenyl}amino)pyrido[3,2-d]pyrimidin-6-yl]piperazin-1-yl}but-2-yn-1-one] | 3820 | 334 | 288
CC#CC(=O)N1CCN(c2ccc3ncnc(Nc4ccc(O[C@H]5CCCOC5)c(C)c4)c3n2)CC1 [Compound 33, 1-{4-[4-({3-methyl-4-[(3S)-oxan-3-yloxy]phenyl}amino)pyrido[3,2-d]pyrimidin-6-yl]piperazin-1-yl}but-2-yn-1-one] | 4050 | 524 | 237
C=CC(=O)N1CCN(c2ccc3ncnc(Nc4ccc(CN5CCn6ncnc6C5)c(C)c4)c3n2)CC1 [Compound 34, 1-(4-{4-[(3-methyl-4-{5H,6H,8H-[1,2,4]triazolo[1,5-a]pyrazin-7-ylmethyl}phenyl)amino]pyrido[3,2-d]pyrimidin-6-yl}piperazin-1-yl)prop-2-en-1-one] | > 10000 | 68.9 | 255
C=CC(=O)N1CCN(c2cc3c(Nc4ccc(Oc5ccc(C(=O)NCC(C)(C)C)cc5)c(C)c4)ncnc3cn2)CC1 [Compound 39, N-(2,2-dimethylpropyl)-4-[2-methyl-4-({6-[4-(prop-2-enoyl)piperazin-1-yl]pyrido[3,4-d]pyrimidin-4-yl}amino)phenoxy]benzamide] | 3360 | 59.9 | 53
C=CC(=O)N1CCC(Nc2ccc3ncnc(Nc4ccc(Oc5ccn6ncnc6c5)c(C)c4)c3n2)CC1 [Compound 40, 1-[4-({4-[(3-methyl-4-{[1,2,4]triazolo[1,5-a]pyridin-7-yloxy}phenyl)amino]pyrido[3,2-d]pyrimidin-6-yl}amino)piperidin-1-yl]prop-2-en-1-one] | 22 | 6.1 | 5.81
C=CC(=O)N1CCC[C@H](Nc2ccc3ncnc(Nc4ccc(Oc5ccn6ncnc6c5)c(C)c4)c3n2)C1 [Compound 41, (S)-1-(3-((4-((4-([1,2,4]triazolo[1,5-a]pyridin-7-yloxy)-3-methylphenyl)amino)pyrido[3,2-d]pyrimidin-6-yl)amino)piperidin-1-yl)prop-2-en-1-one] | 1590 | 18.1 | 19.7

Further lines, with some results ahead:

IC50 [1] [nM] | IC50 [2] [nM] | Structure (SMILES) | GI50 (Ba/F3 ERBB2 YVMA) [nM]
823 | 13.6 | C=CC(=O)N1CCN(c2ccc3ncnc(Nc4ccc(Oc5ccn6ncnc6c5)c(C)c4)c3c2)C[C@H]1C [Compound 35, 1-[(2R)-2-methyl-4-{4-[(3-methyl-4-{[1,2,4]triazolo[1,5-a]pyridin-7-yloxy}phenyl)amino]quinazolin-6-yl}piperazin-1-yl]prop-2-en-1-one] | 7.88
> 10000 | 17.8 | C=CC(=O)N1CC[C@@H](Oc2ccc3ncnc(Nc4ccc(Oc5ccn6ncnc6c5)c(C)c4)c3c2)C1 [Compound 36, (R)-1-(3-((4-((4-([1,2,4]triazolo[1,5-a]pyridin-7-yloxy)-3-methylphenyl)amino)quinazolin-6-yl)oxy)pyrrolidin-1-yl)prop-2-en-1-one] | 98.7
2880 | 33.7 | C=CC(=O)N1CC[C@@H](Oc2ccc3ncnc(Nc4ccc(Oc5ccc6c(c5)ncn6C)c(C)c4)c3c2)C1 [Compound 37, 1-[(3R)-3-{[4-({3-methyl-4-[(1-methyl-1,3-benzodiazol-5-yl)oxy]phenyl}amino)quinazolin-6-yl]oxy}pyrrolidin-1-yl]prop-2-en-1-one] | 52.8
462 | 7.56 | C=CC(=O)N1CC[C@H](Oc2ccc3ncnc(Nc4ccc(Oc5ccc6c(c5)ncn6C)c(C)c4)c3c2)C1 [Compound 38, 1-[(3S)-3-{[4-({3-methyl-4-[(1-methyl-1,3-benzodiazol-5-yl)oxy]phenyl}amino)quinazolin-6-yl]oxy}pyrrolidin-1-yl]prop-2-en-1-one] | 7.22
> 10000 | 29.7 | C=CC(=O)N1CCC[C@@H](Nc2ccc3ncnc(Nc4ccc(Oc5ccn6ncnc6c5)c(C)c4)c3n2)C1 [Compound 42, 1-[(3R)-3-({4-[(3-methyl-4-{[1,2,4]triazolo[1,5-a]pyridin-7-yloxy}phenyl)amino]pyrido[3,2-d]pyrimidin-6-yl}amino)piperidin-1-yl]prop-2-en-1-one] | 219
61.2 | 5.11 | C=CC(=O)N1CC[C@H](Nc2ccc3ncnc(Nc4ccc(Oc5ccn6ncnc6c5)c(C)c4)c3n2)C1 [Compound 43, 1-[(3S)-3-({4-[(3-methyl-4-{[1,2,4]triazolo[1,5-a]pyridin-7-yloxy}phenyl)amino]pyrido[3,2-d]pyrimidin-6-yl}amino)pyrrolidin-1-yl]prop-2-en-1-one] | 3.93
